Measurements reported in publication PMC11726150, “Pre‐ADMET studies of 5‐(3′,4′‐dihydroxyphenyl)‐γ‐valerolactone, the bioactive intestinal metabolite of proanthocyanidins” (Archiv Der Pharmazie, 2024).

Assays:
[1] = target: T1, CYP1A2 (Homo sapiens, UniProt P05177); test: CYP inhibition assay; type: biochemical
T1 construct: purchased
T1 sequence (P05177 1-516): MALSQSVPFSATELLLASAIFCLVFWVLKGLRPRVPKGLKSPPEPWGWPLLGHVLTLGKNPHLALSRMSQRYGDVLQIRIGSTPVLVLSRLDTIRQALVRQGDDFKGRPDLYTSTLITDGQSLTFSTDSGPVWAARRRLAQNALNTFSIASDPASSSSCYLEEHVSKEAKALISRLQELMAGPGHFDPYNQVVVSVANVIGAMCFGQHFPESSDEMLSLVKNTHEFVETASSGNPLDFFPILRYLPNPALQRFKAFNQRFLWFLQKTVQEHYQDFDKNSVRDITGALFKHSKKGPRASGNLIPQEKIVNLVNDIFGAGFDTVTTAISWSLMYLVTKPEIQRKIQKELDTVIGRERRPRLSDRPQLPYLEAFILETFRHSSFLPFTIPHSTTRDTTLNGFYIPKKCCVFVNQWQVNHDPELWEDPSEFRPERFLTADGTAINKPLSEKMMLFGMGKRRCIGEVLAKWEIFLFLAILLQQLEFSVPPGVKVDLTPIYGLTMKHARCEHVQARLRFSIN
Experimental: (§1) The inhibitory potential of VL toward the catalytic activity of CYP3A4 and CYP1A2 was investigated through CYP inhibition assays using high‐throughput CYP450 screening kits. Stock solutions of VL (10 mM in DMSO) and specific positive controls for each CYP isoform were serially diluted in methanol and reactions were performed in 96‐well plates according to the supplier's instructions. Briefly, 40 μL (×2.5) of test compound and 50 μL master premix were added to 96‐well plates. Plates were incubated for 10 min at room temperature to allow for sufficient interaction of the test compound and enzyme. Following incubation, 10 μL (×10) of enzyme‐specific substrates were added and plates were vortex‐mixed for 30 s. Further, fluorescence was measured at the specified excitation and emission wavelengths for each substrate as recommended per individual kit protocol. Ketoconazole (0.004, 0.01, 0.03, 0.11, 0.33, and 1 μM) and α‐naphthoflavone (0.004, 0.01, 0.03, 0.11, 0.33, and 1 μM) were used as positive controls for CYP3A4 and CYP1A2, respectively. IC50 values were obtained from concentration‐response curves generated by plotting the percentage of inhibition versus concentration.^[ [46] ^]

[2] = target: T2, CYP3A4 (Homo sapiens, UniProt P08684); test: CYP inhibition assay; type: biochemical; conditions: read-out: half‐maximal inhibitory concentration (IC50)
T2 construct: purchased
T2 sequence (P08684 whole entry): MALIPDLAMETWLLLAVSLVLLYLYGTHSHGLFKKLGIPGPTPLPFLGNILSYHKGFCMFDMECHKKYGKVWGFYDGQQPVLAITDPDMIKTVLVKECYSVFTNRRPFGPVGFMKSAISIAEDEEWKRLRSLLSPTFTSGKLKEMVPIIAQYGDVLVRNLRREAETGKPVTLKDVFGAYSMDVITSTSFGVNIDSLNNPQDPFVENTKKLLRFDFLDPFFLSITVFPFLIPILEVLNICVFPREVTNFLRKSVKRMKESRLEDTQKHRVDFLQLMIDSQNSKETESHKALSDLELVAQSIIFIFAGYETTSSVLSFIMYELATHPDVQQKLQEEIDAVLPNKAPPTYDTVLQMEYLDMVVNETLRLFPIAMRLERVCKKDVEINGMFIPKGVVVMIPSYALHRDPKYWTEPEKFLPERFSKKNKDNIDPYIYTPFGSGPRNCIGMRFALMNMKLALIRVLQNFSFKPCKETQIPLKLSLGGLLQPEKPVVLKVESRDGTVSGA
Experimental: as §1

[3] = tested on: Caco2 monolayers; test: In vitro transport study across 21‐day Caco2 monolayers; type: in vitro ADME, human
Experimental: Caco2 cells between passage numbers 42–50 and MDCK cells between passage numbers 21–26 were used for transport studies; the assay was conducted as reported by Volpe^[ [33] ^] with slight modifications. Transport experiments were performed in 12‐well Transwell plates. Caco2 cells were seeded at a density of 60,000 cells/cm^2 and grown for 21 days, with change of media every 3 days, while MDCK cells were seeded at a density of 70,000 cells/cm^2 and grown for 5 days, changing the medium daily. The physiological and morphological formation of a confluent monolayer was evaluated by measuring the TEER value: Caco2 monolayers became confluent 1 week after seeding with TEER values greater than 450 Ω/cm^2, while MDCK monolayers became confluent 24 h after seeding with TEER values greater than 90 Ω/cm^2. Phenol red and serum‐free DMEM/F12 medium was used as transport buffer. For bidirectional transport, VL (50 μM) and control compound (propranolol and paclitaxel, 10 μM) were added to the apical side to determine apical to basolateral transport (A–B; absorptive direction) and to the basal side to determine basolateral to apical transport (B–A; secretory direction). The volume of the apical and basolateral chambers was 0.5 and 1.5 mL, respectively. Aliquots of 120 μL were taken from the basolateral (for A–B transport) or the apical (for B–A transport) chamber at 30, 60, 90, and 120 min. An equal volume was replaced with a transport buffer at every time point. At the beginning and at the end of the experiment, an aliquot was also taken from the apical or basolateral chamber for analysis of the drug. To determine the integrity of monolayers, TEER values were measured before and after the experiment. In addition, at the end of the experiment cells were collected and lysed to evaluate the compound intake. Briefly, cells were washed twice with cold PBS and 200 µL of cold MeOH was added to detach and lysate the cells; subsequently, cells were collected into lo‐bind Eppendorf and sonicated in ice for 10 min, then centrifuged for 15 min at 4°C at 14,000 rpm (Eppendorf Centrifuge 5430 R). The supernatant was collected and used for further analysis.
The apparent permeability P app (cm/s) of compounds was calculated from the following equation (Equation 1), while P app (cm/s) of the metabolites was calculated from the equation (Equation 2): (1) Papp=dQ/dt×1/C×1/A.
Equation (1) for calculating P app (cm/s) of tested reference compounds. (2) Papp=Metabolic cleareance/A.
Equation (2) for calculating P app (cm/s) of compound metabolites.
with Metabolic cleareance=Rate of metabolism/C and where dQ/dt is the rate of transport, C is the initial concentration in the donor compartment, and A is the surface area of the filter. To quantify the rate of transport, cumulative amounts of test compounds were plotted against time (min).
Efflux ratio was calculated using the following equation (Equation 3)^[ [48] ^]: (3) Efflux ratio=Papp(B−A)/Papp(A−B).

O=C1CCC(Cc2ccc(O)c(O)c2)O1 (stereo not shown) [VL, 5‐(3′,4′‐dihydroxyphenyl)‐γ‐valerolactone]
inhibition of CYP1A2 [1]: no inhibition effect
IC50 [2]: > 25 µM
VL in the donor compartment at the end of the experiment ([3]; Caco2, 50 µM, 120 min): no longer detectable
conversion of VL to sulfate ([3]; after 30 min): 100%
